ChEMBL document CHEMBL1201862, “PubChem BioAssay data set” (2004)
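Method: 48-hour compound exposure of cells in 96-well plates, five concentrations, linear interpolation of endpoints. At the GI50, growth is halved.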 The source made the active and inactive calls. Rule as the data show it: active = GI50 up to about 1.1 µM and inactive = higher.

Columns and labels:
Test in all cases: growth of human tumour cells (NCI), 48 h
[1] = test system: Malme-3M
[2] = test system: BT-549
[3] = test system: T47D
[4] = test system: SR
[5] = test system: HCT-116
[6] = test system: M19-MEL
[7] = test system: A498
[8] = test system: M14
[9] = test system: RXF 393
[10] = test system: LOX IMVI
[11] = test system: SNB-19
[12] = test system: OVCAR-4
[13] = test system: SF-539
[14] = test system: HOP-62
[15] = test system: EKVX
[16] = test system: MCF7
[17] = test system: UACC-257
[18] = test system: KM12
[19] = test system: NCI-H23
[20] = test system: HCC 2998

Measured: GI50

CCN(CC)CCCNc1ccc2nnn3c4ccc(O)cc4c(=O)c1c23
inactive: [1] 13.1 µM | [2] 14 µM | [3] 22.3 µM | [4] 1.69 µM | [5] 1.15 µM | [6] 13.8 µM | [7] 8.97 µM | [8] 9.27 µM | [9] 1.64 µM | [10] 2.9 µM | [11] 10.1 µM | [12] 6.35 µM | [13] 10.3 µM | [14] 10.7 µM | [15] 16.1 µM | [16] 14 µM | [17] 17.9 µM | [18] 6.61 µM | [19] 11.2 µM | [20] 9.06 µM
